# Results: PMC9099122 (Clinical and Translational Science, 2022)
# “And” between values parts separate entries of the source, which are not always exact repeats. Equal values may be shown once. Read-outs that look alike come from different tables or passages of the source. Marks after values point to notes of the source that are not given here.
# Experiments:
# [1] = format: in vivo, human; conditions: for M:P AUCinf ratio, relative bioavailability point estimate / M:P AUCt ratio, relative bioavailability point estimate: Day 11 vs. day 1; for Cmax, geometric mean (mean, %CV): N = 20; for change in terminal elimination half-life / change in Tmax: day 11 compared to day 1, all subjects
# P‐gp [2] = conditions: following elagolix 200 mg b.i.d. regimen; cited from earlier work
# CYP2C19 [3] = assay: Clinical classification of elagolix as CYP2C19 inhibitor from omeprazole DDI; format: in vivo, human; conditions: elagolix 300 mg b.i.d., FDA criteria for clinical CYP enzyme inhibitors
# [4] = Elagolix plasma concentrations on day 11 of this study; format: in vivo; conditions: female, human, oral, 300 mg
# P‐gp [5] = conditions: in vitro; cited from earlier work
# CYP2C19 [6] = conditions: in vitro; cited from earlier work
# CYP3A = conditions: in vitro; cited from earlier work
# CYP3A4 = conditions: cited from earlier work
# [7] = rabbits, coadministration with verapamil; cited from earlier work
# [8] = cited from earlier work
# [9] = no reference given; cited from earlier work
# [10] = low aqueous solubility and high permeability; cited from earlier work
# [11] = Day 1, omeprazole 40 mg (reference)
# [12] = Day 11, elagolix 300 mg b.i.d. + omeprazole 40 mg (test)
# [13] = Study day 1, omeprazole 40 mg alone
# [14] = Study day 11, omeprazole 40 mg + elagolix 300 mg b.i.d.
# [15] = day 11 (elagolix 300 mg b.i.d.) vs day 1, all subjects
structure (smiles),measurement,setting,value
COc1ccc2nc([S+]([O-])Cc3ncc(CO)c(OC)c3C)[nH]c2c1 (stereo not shown) [5‐hydroxyomeprazole],"M:P AUCinf ratio, central value",[1]; [11],0.458
same,"M:P AUCt ratio, central value",[1]; [11],0.471
same,"M:P AUCinf ratio, central value",[1]; [12],0.198
same,"M:P AUCt ratio, central value",[1]; [12],0.194
same,"M:P AUCinf ratio, relative bioavailability point estimate",[1],0.432
same,"M:P AUCt ratio, relative bioavailability point estimate",[1],0.412
same,"AUCinf, geometric mean (mean, %CV)",[1]; [13],"883 (932, 33) ng•h/ml"
same,"AUCt, geometric mean (mean, %CV)",[1]; [13],"857 (911, 35) ng•h/ml"
same,"RAUCinf, metabolite-to-omeprazole AUCinf ratio, median (minimum–maximum)",[1]; [13],0.61 (0.048–2.3) ^c
same,"RAUCt, metabolite-to-omeprazole AUCt ratio, median (minimum–maximum)",[1]; [13],0.65 (0.044–2.1)
same,"Tmax, median (minimum–maximum)",[1]; [13],2.0 (2.0–10) h
same,"t1/2, harmonic mean (pseudo-standard deviation)",[1]; [13],1.88 (0.794) h
same,"Cmax, geometric mean (mean, %CV)",[1]; [13],"195 (238, 61) ng/ml"
same,"AUCinf, geometric mean (mean, %CV)",[1]; [14],"664 (679, 21) ng•h/ml"
same,"AUCt, geometric mean (mean, %CV)",[1]; [14],"643 (659, 22) ng•h/ml"
same,"RAUCinf, metabolite-to-omeprazole AUCinf ratio, median (minimum–maximum)",[1]; [14],0.20 (0.071–0.90)
same,"RAUCt, metabolite-to-omeprazole AUCt ratio, median (minimum–maximum)",[1]; [14],0.20 (0.071–0.84)
same,"Tmax, median (minimum–maximum)",[1]; [14],3.0 (1.0–8.0) h
same,"t1/2, harmonic mean (pseudo-standard deviation)",[1]; [14],1.97 (0.901) h
same,"Cmax, geometric mean (mean, %CV)",[1]; [14],"134 (142, 34) ng/ml"
same,change in terminal elimination half-life,[1],unchanged
same,decrease in AUCinf,"[1]; day 11 vs day 1, EM subjects",23%
same,decrease in AUCinf,"[1]; day 11 vs day 1, IM subjects",30%
same,decrease in AUCinf (exposure),"[1]; day 11 vs day 1, PM subjects",20%
same,decrease in AUCinf (exposure),"[1]; day 11 vs day 1, all subjects",25%
same,decrease in Cmax,"[1]; day 11 vs day 1, all subjects",approximately 30%
same,decrease in metabolite-to-parent (M:P) AUC ratio,"[1]; day 11 vs day 1, all subjects",~ 60%
same,increase in Tmax,"[1]; day 11 vs day 1, all subjects",1 h
C[C@H]1O[C@@H](O[C@H]2[C@@H](O)C[C@H](O[C@H]3[C@@H](O)C[C@H](O[C@H]4CC[C@@]5(C)[C@H](CC[C@@H]6[C@@H]5C[C@@H](O)[C@]5(C)[C@@H](C7=CC(=O)OC7)CC[C@]65O)C4)O[C@@H]3C)O[C@@H]2C)C[C@H](O)[C@@H]1O [digoxin],increase in AUC,P‐gp [2],26%
same,increase in Cmax,P‐gp [2],71%
COc1cccc(-c2c(C)n(Cc3c(F)cccc3C(F)(F)F)c(=O)n(C[C@H](NCCCC(=O)O)c3ccccc3)c2=O)c1F [elagolix],clinical CYP2C19 inhibitor classification,CYP2C19 [3],weak inhibitor
same,Cmax,[4],1410 ng/mL
same,IC50,P‐gp [5],54 µM
same,Ki,CYP2C19 [6],34 µM
same,kinact,CYP2C19 [6],0.029 min⁻¹
same,maximum induction,CYP3A,20 fold
same,CYP3A inducer classification,CYP3A4; from midazolam DDI,weak to moderate inducer
Cc1ncc2n1-c1ccc(Cl)cc1C(c1ccccc1F)=NC2 [midazolam],reduction in AUC,CYP3A4; with elagolix 150 mg q.d.,35%
same,reduction in AUC,CYP3A4; with elagolix 300 mg b.i.d.,54%
COc1ccc2nc(S(=O)(=O)Cc3ncc(C)c(OC)c3C)[nH]c2c1 [omeprazole sulfone],"M:P AUCinf ratio, central value",[1]; [11],0.825
same,"M:P AUCt ratio, central value",[1]; [11],0.679
same,"M:P AUCinf ratio, central value",[1]; [12],1.028
same,"M:P AUCt ratio, central value",[1]; [12],1.017
same,"M:P AUCinf ratio, relative bioavailability point estimate",[1],1.246
same,"M:P AUCt ratio, relative bioavailability point estimate",[1],1.497
same,change in Cmax after elagolix dosing,[1]; PM subjects,unchanged
same,"RAUCinf, metabolite-to-omeprazole AUCinf ratio, median (minimum–maximum)",[1]; [13],0.85 (0.52–1.1) ^e
same,"RAUCt, metabolite-to-omeprazole AUCt ratio, median (minimum–maximum)",[1]; [13],0.76 (0.13–1.1)
same,"RAUCinf, metabolite-to-omeprazole AUCinf ratio, median (minimum–maximum)",[1]; [14],0.99 (0.71–1.5)
same,"RAUCt, metabolite-to-omeprazole AUCt ratio, median (minimum–maximum)",[1]; [14],0.97 (0.67–1.5)
same,increase in AUCinf (exposure),[1]; [15],2.5 fold
same,increase in Cmax,[1]; [15],2.7 fold
same,change in Tmax,[1],relatively unchanged
same,change in terminal elimination half-life,[1],relatively unchanged
same,increase in exposures,"[1]; day 11 vs day 1, EM and IM subjects",~ 3 fold
same,increase in AUCinf,"[1]; day 11 vs day 1, EM subjects",2.7 fold
same,increase in AUCinf,"[1]; day 11 vs day 1, IM subjects",3 fold
same,increase in metabolite-to-parent (M:P) AUC ratio,"[1]; day 11 vs day 1, all subjects",25%
same,AUCinf on day 11 lower compared to day 1,[1]; one PM subject with AUCinf on both days,40%
"COc1ccc2[nH]c([S+]([O-])Cc3ncc(C)c(OC)c3C)nc2c1 (stereo not shown) [omeprazole, reference compound]",increase in AUCinf (exposure),[1]; [15],1.8 fold
same,increase in Cmax,[1]; [15],1.9 fold
same,change in Tmax,[1],unchanged
same,change in terminal elimination half-life,[1],unchanged
same,increase in AUCinf,"[1]; day 11 vs day 1, EM subjects",2 fold
same,increase in AUCinf,"[1]; day 11 vs day 1, IM subjects",2.6 fold
same,decrease in AUCinf (exposure),"[1]; day 11 vs day 1, PM subjects",40%
same,increase in Cmax,"[1]; day 11 vs day 1, PM subjects",23%
same,Tmax,"[1]; human, plasma, oral, 40 mg, Tmax, individual subjects, three PM subjects, day 1",8 h
same,"Tmax, individual subjects","[1]; three PM subjects, day 1",10 h and 2 h
same,"Tmax, individual subjects","[1]; three PM subjects, day 11",2 h (2×) and 1 h
same,increase in AUC,[7],more than 2 fold
same,increase in Cmax,[7],more than 2 fold
same,"model-estimated absorption rate constant, higher vs homozygous wild-type",[8]; subjects heterozygous for ABCB1 mutant alleles,2 fold
same,"model-estimated absorption rate constant, higher vs homozygous wild-type",[8]; subjects homozygous for ABCB1 mutant alleles,7 fold
same,estimated fraction absorbed and escaping intestinal first pass (fa*fg),[9],approximately 0.80
same,Biopharmaceutics Classification System (BCS) class,[10],Class 2
